Test results published in patent US20160039917A1, “Method for Treating Eclampsia and Preeclampsia” (VELO BIO, LLC, priority 2013, published 2016).
Like-named read-outs stand apart in the source and are kept apart here.

Columns and labels:
[1] = system: human placental EDLF production (fetal tissues); assay: Placental explant culture (fetal side), EDLF released into media measured by Digibind RIA; assay type: cell-based; conditions: for EDLF accumulation in culture: time course; for EDLF production: fetal tissues; for EDLF in the conditioned media, earlier time points / EDLF concentration in the conditioned media: 2 μM; for EDLF in the conditioned media, earlier time points: early time point experiment
[2] = system: placental ROS release (lipid peroxides); conditions: 48 hours
Procedure: (§1) For these studies placentas from uncomplicated pregnancies were obtained immediately after delivery and 4-5 small tissue pieces (˜5 mm×5 mm×5 mm) were cut off from the inner fetal side. The tissue pieces were dissected into tiny pieces with sterilized scissors. Any visible clots and blood vessels were removed with sterilized tweezers. The remaining villi were washed repeatedly with PBS to remove blood from the intervillous space. Villous tissue of ˜5 mg/well was then patted dry by sterilized paper tower and incubated in a 6-well cell culture plate with 5 mL of serum-free DMEM (Gibson, Grand Island, N.Y., USA) containing 100 U/mL penicillin, 100 μg/mL streptomycin and 0.25 μg/mL amphotericin B (Sigma, St. Louis, Mo., USA) per well for 48 hours at 37° C. in an incubator gassed with 95% air and 5% CO2.
(§2) Conditioned media from placental explants cultured with hydrogen peroxide or under low O2 conditions were collected and assayed by a Lipid Hydroperoxide (LPO) Assay Kit (Cayman Chemical, Ann Arbor, Mich., USA) and a human TNF-alpha Quantikine ELISA Kit (R&D Systems, Minneapolis, Minn., USA) following the manufacturers' methods to determine levels of lipid oxidation.

[3] = system: placental TNFα release; conditions: 48 hours
Procedure: as §1, §2

[4] = system: human placental EDLF production (maternal tissues); conditions: 48 hours
Procedure: Human placenta was dissected into fetal and maternal tissues. These were incubated in buffered culture media for 48 hours in the absence or presence of graded concentrations of ketoconazole. The culture media was collected and the amount of EDLF released from the tissue was measured using an RIA.
At the end of incubation, samples of the culture medium were collected in 15 mL conical tubes and any residual villi were removed by centrifuging at 4000 RPM for 2 min. The supernatant was stored at −80° C. as conditioned medium until later processing and assay.
After the homogenization and tissue culture processes, homogenate and conditioned media samples were collected and assayed by radioimmunoassay. Digibind (GlaxoSmithKline, Research Triangle Park, N.C., USA) was used as the primary antibody anti-EDLF/ouabain and a rabbit anti-sheep immunoglobulin (IgG) Fab fragment antibody (Jackson ImmunoResearch Laboratories, Inc., West Grove, Pa., USA) was used as the secondary antibody. […] Tritiated ouabain (30.0 Ci/mmol, Perkin Elmer, Boston, Mass., USA) was used as a tracer. Cold ouabain solutions at graded concentrations were used as standards. A 100 μL aliquot of specimen or standard ouabain solution (50 nM, 0.1 μM, 0.2 μM, 0.5 μM, 1 μM, 3 μM), plus 50 μL of a 2.22×10^-8 M tritiated ouabain solution, 300 μL of 1.8 μg/mL Digibind solution, 60 μL of 2.12×10^-7 M 2° Ab solution and 10 μL of 10 mM pH 7.4 Tris buffer were combined and mixed well, then allowed to incubate at room temperature overnight to allow antigen-antibody binding. For the assay of conditioned media, because samples contained DMEM medium, 100 μL of DMEM were added to the reaction solutions for each standard and 100 μL of deionized H2O were added to reaction solutions for specimens to bring them to the same volume. EDLF in the several conditioned media/homogenate specimens or standard cold ouabain in the calibrating solutions competed with the labeled ouabain for Digibind and then the secondary (2°) antibody was added to bind to the primary (1°) antibody-antigen complex to decrease its solubility. After the overnight incubation, 563 μL of 16% polyethylene glycol (PEG)-6000 (Calbiochem, La Jolla, Calif., USA) was added to each reaction solution to precipitate the antibody-antigen complex. After centrifugation at 13,200 rpm for 30 min, the supernatant was discarded and the pellet was resuspended in 500 μL of 0.05 M phosphate buffer (pH 7.0).

Molecule: CC(=O)[C@@]1(O)CC[C@H]2[C@@H]3CCC4=CC(=O)CC[C@]4(C)[C@H]3CC[C@@]21C [17P, 17α-hydroxyprogesterone]
- EDLF released into the culture media ([1]; 48 hours, 0.20 μM): 3.60±1.06 ×10^−8 M ouabain equivalents
- EDLF released into the culture media ([1]; 48 hours, 0.50 μM): 3.76±0.84 ×10^−8 M ouabain equivalents
- EDLF released into the culture media ([1]; 48 hours, 1.0 μM): 4.40±1.12 ×10^−8 M ouabain equivalents
- EDLF released into the culture media ([1]; 48 hours, 2.0 μM): 4.91±1.52 ×10^−8 M ouabain equivalents
- EDLF accumulation in culture ([1]; 2.0 μM, 6 hours): 12.60±3.81 ×10^−8 M ouabain equivalents
- EDLF accumulation in culture ([1]; 2.0 μM, 12 hours): 28.30±6.30 ×10^−8 M ouabain equivalents
- EDLF accumulation in culture ([1]; 2.0 μM, 24 hours): 55.39±33.62 ×10^−8 M ouabain equivalents
- EDLF accumulation in culture ([1]; 2.0 μM, 36 hours): 95.00±40.44 ×10^−8 M ouabain equivalents
- EDLF accumulation in culture ([1]; 2.0 μM, 48 hours): 132.43±74.37 ×10^−8 M ouabain equivalents

Molecule: OO [H2O2, hydrogen peroxide]
- released EDLF ([1]; 48 hours, 5 nM): 4.87±1.57 ×10^−8 M ouabain equivalents
- EDLF levels in the media ([1]; higher concentrations (10 nM, 20 nM)): equal or slightly lower than those treated with 5 nM H2O2
- lipid peroxides ([2]; 1.0 nM): 6.62 ± 3.31 µM
- lipid peroxides ([2]; 5.0 nM): 9.17 ± 3.18 µM
- lipid peroxides ([2]; 10.0 nM): 11.43 ± 3.67 µM
- lipid peroxides ([2]; 20.0 nM): 13.13 ± 5.04 µM
- TNFα release ([3]; 1.0 nM): 18.61 ± 13.60 pg/mL
- TNFα release ([3]; 5.0 nM): 14.95 ± 6.39 pg/mL
- TNFα release ([3]; 10.0 nM): 15.83 ± 6.63 pg/mL
- TNFα release ([3]; 20.0 nM): 13.50 ± 3.43 pg/mL

Molecule: CC(=O)[C@H]1CC[C@H]2[C@@H]3CCC4=CC(=O)CC[C@]4(C)[C@H]3CC[C@]12C [Progesterone, progesterone]
- effect on EDLF production ([1]; placenta): little or no effect

Molecule: CC(=O)N1CCN(c2ccc(OCC3COC(Cn4ccnc4)(c4ccc(Cl)cc4Cl)O3)cc2)CC1 (stereo not drawn) [ketoconazole]
- EDLF production ([1]; 48 hours, 1.0 μM): 7.99±13.21 ×10^−8 M RIA ouabain equivalents
- EDLF production ([1]; 48 hours, 2.0 μM): 5.58±8.91 ×10^−8 M RIA ouabain equivalents
- EDLF production ([1]; 48 hours, 5.0 μM): 1.60±1.62 ×10^−8 M RIA ouabain equivalents
- EDLF production ([1]; 48 hours, 10.0 μM): 1.47±1.64 ×10^−8 M RIA ouabain equivalents
- EDLF production ([1]; 48 hours, 20.0 μM): 1.25±1.43 ×10^−8 M RIA ouabain equivalents
- EDLF production ([4]; 1.0 μM): 1.90±2.05 ×10^−8 M RIA ouabain equivalents
- EDLF production ([4]; 2.0 μM): 1.79±1.96 ×10^−8 M RIA ouabain equivalents
- EDLF production ([4]; 5.0 μM): 1.83±2.03 ×10^−8 M RIA ouabain equivalents
- EDLF production ([4]; 10.0 μM): 1.73±1.82 ×10^−8 M RIA ouabain equivalents
- EDLF production ([4]; 20.0 μM): 2.46±2.60 ×10^−8 M RIA ouabain equivalents

Molecule: CC(=O)[C@H]1CC[C@H]2[C@@H]3CC=C4C[C@@H](O)CC[C@]4(C)[C@H]3CC[C@]12C [pregnenolone]
- EDLF in the conditioned media, earlier time points ([1]; 3 hours): 77.4+25.0 ×10^−8 M
- EDLF concentration in the conditioned media ([1]; 6 hours): 325.6±61.0 ×10^−8 M
- EDLF in the conditioned media, earlier time points ([1]; 6 hours): 76.8+35.0 ×10^−8 M ouabain equivalents
- EDLF concentration in the conditioned media ([1]; 12 hours): 136.1±27.7 ×10^−8 M
- EDLF concentration in the conditioned media ([1]; 24 hours): 148.4±15.1 ×10^−8 M
- EDLF concentration in the conditioned media ([1]; 36 hours): 113.6±14.4 ×10^−8 M
- EDLF concentration in the conditioned media ([1]; 48 hours): 48.5±7.4 ×10^−8 M

Molecule: TNFα
- EDLF released into the culture media ([1]; 48 hours, 1.0 nM): 2.41±0.80 ×10^−8M ouabain equivalents
- EDLF released into the culture media ([1]; 48 hours, 2.0 nM): 2.75±0.98 ×10^−8M ouabain equivalents
- EDLF released into the culture media ([1]; 48 hours, 5.0 nM): 2.76±0.80 ×10^−8M ouabain equivalents
- EDLF released into the culture media ([1]; 48 hours, 10.0 nM): 3.51±0.69 ×10^−8M ouabain equivalents
- EDLF released into the culture media ([1]; 48 hours, 20.0 nM): 4.47±0.99 ×10^−8M ouabain equivalents
